Results as given in the NIST ThermoML archive (doi:10.1021/je060271a).

Details: 303.15 K, Liquid, Vibrating tube method

CCCCC(=O)OCC(COC(=O)CCCC)(COC(=O)CCCC)COC(=O)CCCC [pentaerythritol tetrapentanoate]
Details | mass density [kg/m3]
9247.2 kPa | 1016.8
9281.8 kPa | 1016.7
9311.6 kPa | 1016.7
9342 kPa | 1016.8
9371.6 kPa | 1016.9
9407.8 kPa | 1016.8
9438.5 kPa | 1016.8
9469.3 kPa | 1017
9495.9 kPa | 1017
9521 kPa | 1016.9
9552.9 kPa | 1017
9584.8 kPa | 1016.9
9608.9 kPa | 1017
9634.2 kPa | 1017
9666.8 kPa | 1017
9688 kPa | 1017
9719.7 kPa | 1017.1
9746.4 kPa | 1017.1
9779.5 kPa | 1017.2
9805.7 kPa | 1017.2
9831.9 kPa | 1017.1
9858.9 kPa | 1017.1
9892.2 kPa | 1017.1
9921.6 kPa | 1017.2
9948 kPa | 1017.2
9980.5 kPa | 1017.3
10009 kPa | 1017.3
10046 kPa | 1017.3
10069 kPa | 1017.3
10099 kPa | 1017.4
10134 kPa | 1017.2
10161 kPa | 1017.2
10195 kPa | 1017.3
10225 kPa | 1017.5
10254 kPa | 1017.4
10289 kPa | 1017.4
10319 kPa | 1017.5
10351 kPa | 1017.4
10382 kPa | 1017.1
10417 kPa | 1017.5
10448 kPa | 1017.6
10480 kPa | 1017.6
10517 kPa | 1017.7
10550 kPa | 1017.5
10583 kPa | 1017.6
10624 kPa | 1017.7
10658 kPa | 1017.5
10690 kPa | 1017.7
10713 kPa | 1017.7
10757 kPa | 1017.7
10800 kPa | 1017.6
10821 kPa | 1017.7
10840 kPa | 1017.8
10863 kPa | 1017.8
10883 kPa | 1017.9
10904 kPa | 1017.8
10928 kPa | 1017.9
10947 kPa | 1017.9
10968 kPa | 1017.8
10992 kPa | 1017.9
11013 kPa | 1017.8
11033 kPa | 1017.9
11058 kPa | 1017.9
11078 kPa | 1017.9
11101 kPa | 1018
11121 kPa | 1018
11147 kPa | 1017.9
11168 kPa | 1017.9
11191 kPa | 1018.1
11213 kPa | 1017.9
11234 kPa | 1017.9
11255 kPa | 1018.1
11281 kPa | 1018
11302 kPa | 1018
11328 kPa | 1018.2
11349 kPa | 1018.1
11372 kPa | 1018.1
11398 kPa | 1018.1
11420 kPa | 1018.2
11443 kPa | 1018
11469 kPa | 1018.2
11491 kPa | 1018.1
11513 kPa | 1018.1
11541 kPa | 1018.2
11564 kPa | 1018.2
11586 kPa | 1018.3
11612 kPa | 1018.2
11635 kPa | 1018.2
11658 kPa | 1018.3
11688 kPa | 1018.3
11710 kPa | 1018.2
11734 kPa | 1018.2
11758 kPa | 1018.4
11785 kPa | 1018.3
11809 kPa | 1018.3
11838 kPa | 1018.4
11862 kPa | 1018.4
11884 kPa | 1018.5
11909 kPa | 1018.4
11938 kPa | 1018.6
11963 kPa | 1018.4
11988 kPa | 1018.5
12014 kPa | 1018.5
12044 kPa | 1018.5
12069 kPa | 1018.5
12095 kPa | 1018.5
12120 kPa | 1018.5
12148 kPa | 1018.6
12173 kPa | 1018.6
12205 kPa | 1018.5
12229 kPa | 1018.7
12254 kPa | 1018.5
12285 kPa | 1018.7
12312 kPa | 1018.6
12338 kPa | 1018.6
12366 kPa | 1018.7
12391 kPa | 1018.8
12423 kPa | 1018.7
12449 kPa | 1018.7
12476 kPa | 1018.7
12508 kPa | 1018.8
12536 kPa | 1018.8
12562 kPa | 1018.8
12596 kPa | 1018.8
12621 kPa | 1018.8
12649 kPa | 1018.8
12682 kPa | 1018.8
12710 kPa | 1018.8
12740 kPa | 1018.9
12766 kPa | 1018.9
12798 kPa | 1019
12826 kPa | 1018.9
12856 kPa | 1019
12889 kPa | 1019.1
12918 kPa | 1019.1
12946 kPa | 1019
12980 kPa | 1019.1
13009 kPa | 1019
13044 kPa | 1019.1
13075 kPa | 1019.2
13102 kPa | 1019.2
13132 kPa | 1019.1
13169 kPa | 1019.2
13197 kPa | 1019.1
13227 kPa | 1019.2
13258 kPa | 1019.1
13295 kPa | 1019.2
13324 kPa | 1019.2
13359 kPa | 1019.3
13390 kPa | 1019.3
13421 kPa | 1019.3
13458 kPa | 1019.3
13489 kPa | 1019.4
13520 kPa | 1019.4
13558 kPa | 1019.4
13590 kPa | 1019.4
13622 kPa | 1019.4
13660 kPa | 1019.5
13693 kPa | 1019.5
13725 kPa | 1019.6
